Data: article PMC7570888 (Molecules, 2020)
Marks after values point to notes of the source that are not given here.

Key:
MT1 = settings: cited from earlier work
MT2 = settings: cited from earlier work
human MT1 receptor [1] = target: T1, human MT1 receptor (Homo sapiens, UniProt P48039); experiment: 2-[125I]iodomelatonin competition binding, human MT1 in NIH3T3 cell membranes; settings: 2-[125I]iodomelatonin 100 pM, 90 min 37 °C; Cheng-Prusoff; mean of at least three determinations in duplicate; read-out: hMT1 pKi (±SD) (converted)
T1 construct: expressed in transfected cells; host or cells: NIH3T3 fibroblast cells, stably transfected; membranes used
Procedure: (§1) The newly synthesized alpha- and beta-methyl N-anilinoethylamides were evaluated for their binding affinity at human MT1 and MT2 receptors stably transfected in NIH3T3 cells using 2-[^125I]iodomelatonin as radiolabelled ligand.
(§2) Binding affinities were determined using 2- [^125I]iodomelatonin as the labeled ligand in competition experiments on cloned human MT1 and MT2 receptors expressed in NIH3T3 […] fibroblast cells. The characterization of NIH3T3-MT1 and -MT2 cells had been already described in detail. Membranes were incubated for 90 min at 37 °C in binding buffer (Tris-HCl, 50 mM, pH 7.4). The final membrane concentration was 5−10 μg of protein per tube. The membrane protein level was determined in accordance with a previously reported method. […] The pKi values were calculated from the IC50 values in accordance with the Cheng−Prusoff equation [21]. The pKi values are the mean of at least three independent determinations performed in duplicate.

human MT2 receptor [2] = target: T2, human MT2 receptor (Homo sapiens, UniProt P49286); experiment: 2-[125I]iodomelatonin competition binding, human MT2 in NIH3T3 cell membranes; settings: 2-[125I]iodomelatonin 100 pM, 90 min 37 °C; Cheng-Prusoff; mean of at least three determinations in duplicate; read-out: hMT2 pKi (±SD) (converted)
T2 construct: expressed in transfected cells; host or cells: NIH3T3 fibroblast cells, stably transfected; membranes used
T2 sequence (P49286 1-362): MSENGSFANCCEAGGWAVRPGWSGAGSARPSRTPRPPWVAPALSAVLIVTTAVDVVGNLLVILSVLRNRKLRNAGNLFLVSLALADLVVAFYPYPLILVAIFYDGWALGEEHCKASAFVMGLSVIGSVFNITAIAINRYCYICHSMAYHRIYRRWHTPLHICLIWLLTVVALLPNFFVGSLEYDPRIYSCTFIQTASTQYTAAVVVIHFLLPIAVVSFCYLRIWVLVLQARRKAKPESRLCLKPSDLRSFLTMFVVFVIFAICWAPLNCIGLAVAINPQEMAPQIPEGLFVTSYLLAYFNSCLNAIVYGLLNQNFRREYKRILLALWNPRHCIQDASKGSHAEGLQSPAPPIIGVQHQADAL
Procedure: as §1, §2

human MT1 receptor [3] = target: T1, human MT1 receptor; settings: relative to melatonin; cited from earlier work
human MT2 receptor [4] = target: T2, human MT2 receptor; settings: relative to melatonin; cited from earlier work

T1 sequence (P48039 whole entry): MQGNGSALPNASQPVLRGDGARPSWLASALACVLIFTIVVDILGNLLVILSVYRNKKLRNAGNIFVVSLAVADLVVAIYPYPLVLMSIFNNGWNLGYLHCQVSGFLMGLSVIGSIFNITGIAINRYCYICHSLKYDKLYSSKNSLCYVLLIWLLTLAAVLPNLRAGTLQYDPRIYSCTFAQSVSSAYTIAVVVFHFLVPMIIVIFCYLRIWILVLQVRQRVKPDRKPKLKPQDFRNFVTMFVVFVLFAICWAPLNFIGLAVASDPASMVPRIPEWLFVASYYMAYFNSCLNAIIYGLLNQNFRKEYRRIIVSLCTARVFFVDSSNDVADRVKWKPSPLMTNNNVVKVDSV

For `COc1cc2c([C@@H](C)CNC(C)=O)c[nH]c2cc1Cl` [TIK-301, (R)-β-methyl-6-chloro-melatonin], the Ki (MT1) is given as 0.081 nM and the Ki (MT2) is given as 0.042 nM.
For `CCC(=O)NC[C@H](CO)c1cccc2ccc(OC)cc12` [compound 1, (R)-N-[3-hydroxy-2-(7-methoxynaphthalen-1-yl)propyl]propanamide], the “pKi(MT1)” value (MT1) is given as 8.47 and the “pKi(MT2)” value (MT2) is given as 9.50.
For `COc1cccc(O[C@@H](C)CNC(C)=O)c1` [compound 2, (S)-N-[2-(3-methoxyphenoxy)propyl]acetamide], the “pKi(MT1)” value (MT1) is listed as 8.77 and the “pKi(MT2)” value (MT2) is listed as 8.33.
In the case of `COc1cccc(N(C)CCNC(C)=O)c1` [compound 3, N-{2-[(3-methoxyphenyl)methylamino]ethyl}acetamide], the Ki (human MT1 receptor [1]) is given as 1.74 nM, the Ki (human MT2 receptor [2]) is given as 2.24 nM and the “hMT1 IA, relative intrinsic activity” value (human MT1 receptor [3]) is given as 0.95 ^c. The “hMT2 IA, relative intrinsic activity” value (human MT2 receptor [4]) was 1.06 ^c.
